Assay results published in patent US20220031800A1, “PEPTIDES FOR TREATING NON-EXUDATIVE MACULAR DEGENERATION AND OTHER DISORDERS OF THE EYE” (Allegro Pharmaceuticals, LLC, priority 2019, published 2022).
Square brackets hold non-standard residues; d marks the D form. Peptide text beside a SMILES is read from it. Cya = N[C@@H](CS(=O)(=O)O)C(=O)O

How the values were obtained:
[1] = system: study eye of subjects with intermediate non-exudative AMD; test: Best corrected visual acuity (BCVA, letters read) in Dry AMD study; type: in vivo, human
Method: The subjects in Groups 1 and 2 received the following treatments: Thus, subjects in Group 1 received an initial sham injection in the study eye followed by a single 1 mg dose of risuteganib in the study eye. The subjects in Group 2 received a total of two (2) doses of risuteganib (1 mg per dose) in the study eye. Numerous study assessments were conducted at various time points throughout the study. Included among these study assessments were; refractive eye examinations, determinations of BCVA AND low-luminance BCVA, Lanthony D-15 color vision test, measurement of intraocular pressure (IOP), Indirect ophthalmoscopy/dilated fundus examinations and spectral-domain optical coherence tomography (SD-OCT). Also, blood and saliva samples were obtained from each subject for genetic analysis. The above-listed study assessments were performed at the time points indicated in Table 1, below: For this study, a primary efficacy endpoint was deemed to be the percentage of population with an improvement in BCVA of at least 8 letters (1.5 lines) BCVA.

[2] = system: study eye of subjects with intermediate non-exudative AMD; test: Low-luminance visual acuity; type: in vivo, human
Method: Numerous study assessments were conducted at various time points throughout the study. Included among these study assessments were; refractive eye examinations, determinations of BCVA AND low-luminance BCVA, Lanthony D-15 color vision test, measurement of intraocular pressure (IOP), Indirect ophthalmoscopy/dilated fundus examinations and spectral-domain optical coherence tomography (SD-OCT). Also, blood and saliva samples were obtained from each subject for genetic analysis. The above-listed study assessments were performed at the time points indicated in Table 1, below: Table 10, below, summarizes low-luminescence visual acuity in the study subjects.

[3] = system: human RPE cells (ARPE-19); test: Trypan blue viability of human RPE cells (ARPE-19) exposed to hydrogen peroxide; type: cell-based; conditions: 1.0 mg/mL risuteganib alone
Method: Purpose: Investigate cytoprotective properties of risuteganib in human RPE cells (ARPE-19) exposed to hydrogen peroxide, which is a reactive oxygen species that can induce cell death at elevated levels. Methods: ARPE-19 cells were cultured in laminin-coated trans-wells for 2 weeks to induce differentiation. Cells were then exposed to the experimental conditions: […]

[4] = Week 24, Group 2 (1 mg IVT day 1 + wk 16), subset gain ≥8 letters at any week, n = 14
[5] = Week 24, Group 2 (1 mg IVT day 1 + wk 16), subset gain ≥8 letters at primary endpoint week, n = 12
[6] = Week 28, Group 1 crossover (sham day 1, 1 mg IVT wk 16), subset gain ≥8 letters at any week, n = 3
[7] = Week 28, Group 1 crossover (sham day 1, 1 mg IVT wk 16), subset gain ≥8 letters at primary endpoint week, n = 2
[8] = Week 28, Group 2 (1 mg IVT day 1 + wk 16), n = 25
[9] = Week 28, Group 2 (1 mg IVT day 1 + wk 16), subset gain ≥8 letters at any week, n = 14
[10] = Week 28, Group 2 (1 mg IVT day 1 + wk 16), subset gain ≥8 letters at primary endpoint week, n = 12
[11] = Week 28 vs baseline, Group 2 (1 mg IVT day 1 + wk 16), n = 25
[12] = Week 32, Group 1 crossover (sham day 1, 1 mg IVT wk 16), subset gain ≥8 letters at any week, n = 3
[13] = Week 32, Group 1 crossover (sham day 1, 1 mg IVT wk 16), subset gain ≥8 letters at primary endpoint week, n = 2
[14] = Week 32, Group 2 (1 mg IVT day 1 + wk 16), subset gain ≥8 letters at any week, n = 14
[15] = Week 32, Group 2 (1 mg IVT day 1 + wk 16), subset gain ≥8 letters at primary endpoint week, n = 12
[16] = risuteganib eyes with geographic atrophy in foveal center at baseline (n = 2)
[17] = risuteganib eyes with no geographic atrophy in foveal center at baseline (n = 23)
[18] = Week 12, Group 2 (1 mg IVT day 1 + wk 16)
[19] = Week 32, Group 1 crossover (sham day 1, 1 mg IVT wk 16)
[20] = Week 32, Group 2 (1 mg IVT day 1 + wk 16)
[21] = Week 32 change, Group 1 crossover (sham day 1, 1 mg IVT wk 16)
[22] = Week 32 change, Group 2 (1 mg IVT day 1 + wk 16)

SMILES: C[C@@H](O)[C@H](NC(=O)[C@H](CS(=O)(=O)O)NC(=O)CNC(=O)[C@H](CCCNC(=N)N)NC(=O)CN)C(=O)N1CCC[C@H]1C(=O)O [risuteganib, Glycyl-L-arginylglycyl-3-sulfo-L-alanyl-L-threonyl-L-proline] (H-GRG[Cya]TP-OH)
- BCVA change in letters read, mean [1, 4]: 10.2 letters read
- BCVA change in letters read, median [1, 4]: 9.5 letters read
- BCVA letters read, mean [1, 4]: 72.7 letters read
- BCVA letters read, median [1, 4]: 74.5 letters read
- BCVA change in letters read, mean [1, 5]: 11.4 letters read
- BCVA change in letters read, median [1, 5]: 10.0 letters read
- BCVA letters read, mean [1, 5]: 74.3 letters read
- BCVA letters read, median [1, 5]: 75.5 letters read
- BCVA change in letters read, mean [1, 6]: 8.0 letters read
- BCVA change in letters read, median [1, 6]: 9.0 letters read
- BCVA letters read, mean [1, 6]: 77.7 letters read
- BCVA letters read, median [1, 6]: 74.0 letters read
- BCVA change in letters read, mean [1, 7]: 9.5 letters read
- BCVA change in letters read, median [1, 7]: 9.5 letters read
- BCVA letters read, mean [1, 7]: 79.5 letters read
- BCVA letters read, median [1, 7]: 79.5 letters read
- BCVA letters read at primary endpoint week, mean [1, 8]: 70.5 letters read
- BCVA letters read at primary endpoint week, median [1, 8]: 71.0 letters read
- BCVA change in letters read, mean [1, 9]: 11.4 letters read
- BCVA change in letters read, median [1, 9]: 11.5 letters read
- BCVA letters read, mean [1, 9]: 73.9 letters read
- BCVA letters read, median [1, 9]: 74.5 letters read
- BCVA change in letters read, mean [1, 10]: 12.8 letters read
- BCVA change in letters read, median [1, 10]: 12.0 letters read
- BCVA letters read, mean [1, 10]: 75.7 letters read
- BCVA letters read, median [1, 10]: 75.5 letters read
- BCVA change in letters read at primary endpoint week, mean [1, 11]: 6.1 letters read
- BCVA change in letters read at primary endpoint week, median [1, 11]: 6.0 letters read
- BCVA change in letters read, mean [1, 12]: 6.3 letters read
- BCVA change in letters read, median [1, 12]: 6.0 letters read
- BCVA letters read, mean [1, 12]: 76.0 letters read
- BCVA letters read, median [1, 12]: 75.0 letters read
- BCVA change in letters read, mean [1, 13]: 6.5 letters read
- BCVA change in letters read, median [1, 13]: 6.5 letters read
- BCVA letters read, mean [1, 13]: 76.5 letters read
- BCVA letters read, median [1, 13]: 76.5 letters read
- BCVA change in letters read, mean [1, 14]: 8.2 letters read
- BCVA change in letters read, median [1, 14]: 9.5 letters read
- BCVA letters read, mean [1, 14]: 70.7 letters read
- BCVA letters read, median [1, 14]: 73.0 letters read
- BCVA change in letters read, mean [1, 15]: 9.5 letters read
- BCVA change in letters read, median [1, 15]: 10.5 letters read
- BCVA letters read, mean [1, 15]: 72.4 letters read
- BCVA letters read, median [1, 15]: 74.0 letters read
- ≥10 Letter Improvement in Visual Acuity, % [1, 16]: (50) %
- ≥15 Letter Improvement in Visual Acuity, % [1, 16]: (0) %
- ≥10 Letter Improvement in Visual Acuity, % [1, 17]: (30) %
- ≥15 Letter Improvement in Visual Acuity, % [1, 17]: (22) %
- Low-luminance visual acuity letters read, mean [2, 18]: 46.4 letters read
- Low-luminance visual acuity letters read, median [2, 18]: 48.0 letters read
- Low-luminance visual acuity change in letters read, median ([2]; Week 12 change, Group 2 (1 mg IVT day 1 + wk 16)): −1.0 letters read
- Low-luminance visual acuity letters read, mean [2, 19]: 50.7 letters read
- Low-luminance visual acuity letters read, median [2, 19]: 57.0 letters read
- Low-luminance visual acuity letters read, mean [2, 20]: 49.4 letters read
- Low-luminance visual acuity letters read, median [2, 20]: 51.0 letters read
- Low-luminance visual acuity change in letters read, mean [2, 21]: 2.6 letters read
- Low-luminance visual acuity change in letters read, median [2, 21]: 3.0 letters read
- Low-luminance visual acuity change in letters read, mean [2, 22]: 2.0 letters read
- Low-luminance visual acuity change in letters read, median [2, 22]: 0.0 letters read
- Change in cell viability, treatment alone [3]: did not induce detectable change in cell viability
